From patent publication US11820756B2, “Bradykinin B2 receptor antagonists” (Pharvaris Netherlands B.V., priority 2017, dated 2023)

Target: T1, human bradykinin B2 receptor (hB2R) (Homo sapiens, UniProt P30411)
T1 sequence (P30411 1-391): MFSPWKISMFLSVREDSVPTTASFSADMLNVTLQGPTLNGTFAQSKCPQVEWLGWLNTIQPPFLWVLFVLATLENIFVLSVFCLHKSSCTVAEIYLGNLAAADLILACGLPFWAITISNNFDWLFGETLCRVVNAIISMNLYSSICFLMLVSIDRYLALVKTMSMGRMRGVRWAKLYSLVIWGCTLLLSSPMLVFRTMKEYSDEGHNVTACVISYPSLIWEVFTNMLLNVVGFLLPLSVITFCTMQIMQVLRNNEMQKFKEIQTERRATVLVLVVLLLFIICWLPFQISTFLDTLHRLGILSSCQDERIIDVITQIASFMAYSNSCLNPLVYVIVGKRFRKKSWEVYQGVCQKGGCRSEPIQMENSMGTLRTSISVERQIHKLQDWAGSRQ
Assay: cell-based human bradykinin B2 receptor calcium mobilization (hB2R-CaM) assay
Conditions: HTS041C cells, bradykinin at EC80, calcium mobilization; read-out: IC50-value towards human bradykinin B2 receptor (hB2R)
Text: The following cell-based human bradykinin B2 receptor calcium mobilization (hB2R-CaM) assay was used to determine the antagonistic activity of compounds selected from the example compounds Nos. 1 to 168 towards human bradykinin B2 receptor (hB2R). The assay is defined herein as a standard in vitro B2 receptor activity assay, which can be used to determine IC50 values of the compounds according to the present invention, e. g. the compounds shown in Examples 1-11.
The antagonistic activity of compounds according to the present invention was investigated with the hB2R-CaM assay using the B2 Bradykinin Receptor Stable Cell Line HTS041C (Eurofins, St. Charles MO) and the FLIPR Calcium 6 Assay Kit (Molecular Devices, Wokingham, UK) according to the instructions of the providers. CaM assay measurements were performed with a Flexstation 3 System (Molecular Devices) which allows the precise addition of compounds (B2R antagonists) and bradykinin (B2R agonist) to the cells and adjacent continuous recording of the time-dependent CaM assay signals.
HTS041C cells were cultured in high glucose DMEM cell culture medium (Lonza) supplemented with 10% heat-inactivated FBS (PAN Biotech), 10 mM HEPES, Penicillin/Streptomycin (200 U/mL, 200 μg/mL), 1× non-essential amino acids (Lonza), and 250 μg/mL G418 (Invivogen) in cell incubator at 37° C. in a 5% CO2 atmosphere.
One day before the CaM assay experiments cells were seeded in 200 μL DMEM cell culture medium with reduced FBS (5%) and without G418 on clear bottom black 96 well plates (ThermoFisher #165305). Cell starvation was carried out by incubation (37° C., 5% CO2) of 70.000 cells/well for 24 h to 28 h. Immediately prior calcium dye-loading the medium was carefully aspirated and cells were washed with Hank's balanced salt solution (HBSS, Gibco) containing Ca^2+, Mg^2+ and 20 mM HEPES, adjusted to pH 7.4 (HBSS+). Calcium Dye Loading of the Cells:
For calcium dye-loading one FLIPR 6 assay aliquot was dissolved in 20 mL HBSS+. 150 μL of the dye loading solution was added to cell plate and incubated for 120 min at 37° C. and 5% CO2. After dye loading the cell plate was immediately transferred to the pre-warmed (37° C.) Flexstation 3 System for CaM assaying.
Freshly prepared compound (B2 receptor antagonists) dilution series (8 pt, n=2) and bradykinin (B2 receptor agonist) solution in non-binding plates (Costar) were transferred to the Flexstation System (source plate) shortly before starting the experiment. Bradykinin was added in EC80 concentration determined in n>3 preliminary experiments with 8 pt concentration response curves (n=8)). CaM assay was executed by Flexstation 3 System starting with recording of calcium-sensitive dye fluorescence in bottom-read Flex modus with ex/em=485 nm/525 nm, cut off(em)=[…]. After 20 s, 50 μL of 4-fold concentrated compound dilutions were added to the cells resulting in a final DMSO (Sigma) concentration of 0.1% in the cell plate. CaM signals were monitored for 80 s after additions for detection of potential agonistic activities. Prior to bradykinin stimulus compound- and vehicle-treated cells were incubated for 25 min at 37° C. within the Flexstation System. Then 50 μL of a 5-fold concentrated bradykinin solution (HBSS+, 0.1% DMSO) was added to trigger CaM signals (Read out: Max-Min values) which were measured for 80 s post bradykinin stimulus.
IC50 determinations were performed by 4 parameter logistic model curve fitting of the 8 pt (n=2) compound concentration response curves using XLFIT (IDBS) software.
Relative IC50 values of the test compounds were determined with the same hB2R-CaM assay as in Example 12.

Row | IC50 | Compound
1 | ≤ 50 nM | Cc1cc(-n2ncnc2C)c2cccc(OCc3c(Cl)cc(F)cc3[C@H](C)NC(=O)COC(F)F)c2n1 [Compound 9, (S)—N-(1-(3-chloro-5-fluoro-2-((2-methyl-4-(5-methyl-1H-1,2,4-triazol-1-yl)quinolin-8-yloxy)methyl)phenyl)ethyl)-2-(difluoromethoxy)acetamide]
2 | 251 to 1000 nM | Cc1cc(-n2cc(F)cn2)c2cccc(OCc3c(Cl)cc(F)cc3[C@H](C)NC(=O)C3CN(C)C3)c2n1 [Compound 65]
3 | ≤ 50 nM | Cc1cc(-n2cc(F)cn2)c2cccc(OCc3c(Cl)cc(F)cc3[C@H](C)NC(=O)C3CCO3)c2n1 (stereo partly drawn) [Compound 56]
4 | ≤ 50 nM | CCc1ncnn1-c1cc(C)nc2c(OCc3c(Cl)cc(F)cc3[C@H](C)NC(=O)COC(F)F)cccc12 [Compound 169]
5 | ≤ 50 nM | Cc1cc(-c2ncnn2C)c2cccc(OCc3c(Cl)cc(F)cc3[C@H](C)NC(=O)CC(F)F)c2n1 [Compound 197]
6 | ≤ 50 nM | CC[C@H](NC(=O)COC(F)F)c1cc(F)cc(Cl)c1COc1cccc2c(-n3ncnc3C)cc(C)nc12 [Compound 166]
7 | ≤ 50 nM | Cc1cc(-n2cc(F)cn2)c2cccc(OCc3c(Cl)cc(F)cc3[C@H](C)NC(=O)COC(F)(F)F)c2n1 [Compound 121]
8 | 251 to 1000 nM | Cc1cc(-n2cc(F)cn2)c2cccc(OCc3c(Cl)cc(F)cc3[C@H](C)NC(=O)[C@@](C)(O)C(F)(F)F)c2n1 [Compound 52]
9 | ≤ 50 nM | Cc1cc(-c2[nH]ncc2C)c2cccc(OCc3c(Cl)cc(F)cc3[C@H](C)NC(=O)c3cnco3)c2n1 [Compound 187]
10 | ≤ 50 nM | Cc1cc(-n2cc(F)cn2)c2cccc(OCc3c(Cl)cc(F)cc3[C@H](C)NC(=O)C(CO)CO)c2n1 [Compound 71]
11 | ≤ 50 nM | [2H][C@@](C)(NC(=O)[C@@H](C)F)c1cc(F)cc(Cl)c1COc1cccc2c(-c3ncnn3C)cc(C)nc12 [Compound 211]
12 | 51 to 250 nM | Cc1cc(-n2cc(F)cn2)c2cccc(OCc3c(Cl)cc(F)cc3[C@H](C)NC(=O)[C@@H]3CCC(=O)N3)c2n1 [Compound 114]
13 | ≤ 50 nM | Cc1cc(-n2ncnc2C)c2cccc(OCc3c(Cl)cc(F)cc3[C@H](C)NC(=O)c3ccon3)c2n1 [Compound 157]
14 | 51 to 250 nM | Cc1cc(-n2cc(F)cn2)c2cccc(OCc3c(Cl)cc(F)cc3[C@H](C)NC(=O)c3cn(C)cn3)c2n1 [Compound 108]
15 | ≤ 50 nM | Cc1cc(-c2ncc(C#N)n2C)c2cccc(OCc3c(Cl)cc(F)cc3[C@H](C)NC(=O)CC(F)(F)F)c2n1 [Compound 206]
16 | ≤ 50 nM | CO[C@H](C)C(=O)N[C@@H](C)c1cc(F)cc(Cl)c1COc1cccc2c(-n3cc(F)cn3)cc(C)nc12 [Compound 17]
17 | 51 to 250 nM | COC(=O)[C@H](O)CC(=O)N[C@@H](C)c1cc(F)cc(Cl)c1COc1cccc2c(-n3cc(F)cn3)cc(C)nc12 [Compound 69]
18 | 51 to 250 nM | Cc1cc(-c2ncnn2C)c2cccc(OCc3c(Cl)cc(F)cc3[C@H](C)NC(=O)C3(C)CCCO3)c2n1 (stereo partly drawn) [Compound 119]
19 | 51 to 250 nM | CC[C@H](NC(=O)c1coc(C)n1)c1cc(F)cc(Cl)c1COc1cccc2c(-n3cc(F)cn3)cc(C)nc12 [Compound 152]
20 | ≤ 50 nM | CC[C@H](NC(=O)COC(F)(F)F)c1cc(F)cc(Cl)c1COc1cccc2c(-n3ncnc3C)cc(C)nc12 [Compound 167]
21 | ≤ 50 nM | Cc1cc(-c2[nH]ncc2C)c2cccc(OCc3c(Cl)cc(F)cc3[C@H](C)NC(=O)C(C)(C)O)c2n1 [Compound 189]
22 | ≤ 50 nM | CCn1ncnc1-c1cc(C)nc2c(OCc3c(Cl)cc(F)cc3[C@H](C)NC(=O)COC(F)(F)F)cccc12 [Compound 145]
23 | ≤ 50 nM | Cc1cc(-n2ncnc2C)c2cccc(OCc3c(Cl)cc(F)cc3[C@H](C)NC(=O)C(C)(C)O)c2n1 [Compound 160]

Row | IC50 | Compound
24 | ≤ 50 nM | Cc1cc(-n2ncnc2C)c2cccc(OCc3c(Cl)cc(F)cc3[C@H](C)NC(=O)C(C)F)c2n1 (stereo partly drawn) [Compound 193]
25 | ≤ 50 nM | Cc1cc(-n2cc(F)cn2)c2cccc(OCc3c(Cl)cc(F)cc3[C@H](C)NC(=O)C[C@@H](C)O)c2n1 [Compound 26]
26 | ≤ 50 nM | Cc1cc(-n2ncnc2C)c2cccc(OCc3c(Cl)cc(F)cc3[C@H](C)NC(=O)c3cnco3)c2n1 [Compound 95]
27 | ≤ 50 nM | CCn1ncnc1-c1cc(C)nc2c(OCc3c(Cl)cc(F)cc3[C@H](C)NC(=O)c3coc(C)n3)cccc12 [Compound 142]
28 | 51 to 250 nM | Cc1cc(-n2cc(F)cn2)c2cccc(OCc3c(Cl)cc(F)cc3[C@H](C)N(C)C(=O)[C@H](C)Cl)c2n1 [Compound 103]
29 | ≤ 50 nM | CCn1ncnc1-c1cc(C)nc2c(OCc3c(Cl)cc(F)cc3[C@H](C)NC(=O)C(C)(C)O)cccc12 [Compound 143]
30 | ≤ 50 nM | [2H][C@@](C)(NC(=O)c1cocn1)c1cc(F)cc(Cl)c1COc1cccc2c(-c3ncnn3C)cc(C)nc12 [Compound 199]
31 | 51 to 250 nM | Cc1cc(-n2nccn2)c2cccc(OCc3c(Cl)cc(F)cc3[C@H](C)NC(=O)C(C)(C)O)c2n1 [Compound 28]
32 | ≤ 50 nM | CC[C@H](NC(=O)c1coc(C)n1)c1cc(F)cc(Cl)c1COc1cccc2c(-c3ncnn3C)cc(C)nc12 [Compound 149]
33 | ≤ 50 nM | [2H]C([2H])([2H])[C@H](NC(=O)c1cocn1)c1cc(F)cc(Cl)c1COc1cccc2c(-c3ncnn3C)cc(C)nc12 [Compound 200]
34 | ≤ 50 nM | Cc1cc(-n2ncnc2C)c2cccc(OCc3c(Cl)cc(F)cc3[C@H](C)NC(=O)C(C)(F)F)c2n1 [Compound 180]
35 | 51 to 250 nM | Cc1cc(-n2cc(F)cn2)c2cccc(OCc3c(Cl)cc(F)cc3[C@H](C)NC(=O)C(C)OCC3CC3)c2n1 (stereo partly drawn) [Compound 51]
36 | 251 to 1000 nM | Cc1cc(-n2cc(F)cn2)c2cccc(OCc3c(Cl)cc(F)cc3[C@H](C)NC(=O)[C@H](O)CC(C)C)c2n1 [Compound 47]
37 | 251 to 1000 nM | Cc1cc(-n2cc(F)cn2)c2cccc(OCc3c(Cl)cc(F)cc3[C@H](C)NC(=O)[C@@H](O)CCN(C)C)c2n1 [Compound 72]
38 | 51 to 250 nM | CC[C@H](NC(=O)c1ccon1)c1cc(F)cc(Cl)c1COc1cccc2c(-n3cc(F)cn3)cc(C)nc12 [Compound 153]
39 | ≤ 50 nM | Cc1cc(-n2cc(F)cn2)c2cccc(OCc3c(Cl)cc(F)cc3[C@H](C)NC(=O)[C@H]3CCCO3)c2n1 [Compound 20]
40 | ≤ 50 nM | Cc1cc(-n2cc(F)cn2)c2cccc(OCc3c(Cl)cc(F)cc3[C@H](C)NC(=O)[C@@H]3CC[C@H](C)O3)c2n1 [Compound 132]
41 | 51 to 250 nM | Cc1cc(-n2cc(F)cn2)c2cccc(OCc3c(Cl)cc(F)cc3[C@H](C)NC(=O)c3c(C)noc3C)c2n1 [Compound 87]
42 | 51 to 250 nM | Cc1cc(-n2cc(F)cn2)c2cccc(OCc3c(Cl)cc(F)cc3[C@H](C)NC(=O)[C@@H]3COC(=O)N3)c2n1 [Compound 111]
43 | 51 to 250 nM | CC[C@@H](O)C(=O)N[C@@H](C)c1cc(F)cc(Cl)c1COc1cccc2c(-n3ncnc3C)cc(C)nc12 [Compound 99]
44 | 51 to 250 nM | CC[C@@H](O)C(=O)N[C@@H](C)c1cc(F)cc(Cl)c1COc1cccc2c(-n3cc(F)cn3)cc(C)nc12 [Compound 24]
45 | 51 to 250 nM | Cc1cc(-n2cc(F)cn2)c2cccc(OCc3c(Cl)cc(F)cc3[C@H](C)NC(=O)[C@@H](O)CC(C)C)c2n1 [Compound 46]
